The results in this text go back to US12486272B2 (NIHON NOHYAKU CO., LTD., priority 2019, dated 2025).

Bounds are passed on as bounds.

The subject of one assay is Rhipicephalus sanguineus. Briefly: Assay for transdermal parasiticidal activity against nymphs of Rhipicephalus sanguineus. The format is in vivo. Particulars: 48 h, read-out: mortality rate. From the text:
Assay for Transdermal Parasiticidal Activity Against Nymphs of Rhipicephalus sanguineus
DMSO diluted solutions of various compounds of the present invention were individually diluted to the final concentration of 100 ppm with an acetone/triton mixture and applied to the inside of vented sample bottles. After overnight drying, ten nymphs of R. sanguineus were introduced into each bottle, and the mortality rate was examined two days later. Aberrant adults were regarded as the dead.

The next assay has as its system Dirofilaria immitis. Briefly: Larval motility assay on Dirofilaria immitis. Particulars: 72 h, L1 stage larvae, 3 days, relative to DMSO only, read-out: percent motility inhibition. As for the experimental part:
Larval Motility Assay on Dirofilaria immitis
Five hundred L1 stage larvae of D. immitis were diluted in a predetermined conditioned medium and introduced into each well of a 96-well plate. DMSO diluted solutions of various compounds of the present invention were added at the final concentration of 50 ppm to the wells of the 96-well plate. The plate was allowed to stand for 3 days, and then larval motility was examined. The percent motility inhibition in the wells of each treatment was calculated relative to the wells of treatment with DMSO only.

The next assay concerns Haemonchus contortus. Briefly: Larval motility assay on Haemonchus contortus. The following applies: 96 h, L1 stage larvae, 4 days, relative to DMSO only, read-out: percent motility inhibition. The procedure:
Larval Motility Assay on Haemonchus contortus DMSO diluted solutions of various compounds of the present invention were added at the final concentration of 50 ppm to the wells of a 96-well plate containing a predetermined conditioned medium. Twenty L1 stage larvae of H. contortus were introduced into each well of the 96-well plate. The plate was allowed to stand for 4 days, and then larval motility was examined. The percent motility inhibition in the wells of each treatment was calculated relative to the wells of treatment with DMSO only.

The test system of another assay is Ctenocephalides felis. Briefly: whole plant or invertebrate. The format is in vivo. Particulars: 50 ppm in bovine blood, oral via feeder, adults, following day, read-out: mortality rate.

Consider `CCS(=O)(=O)c1cc(/C(=N/OCCSC)OC)cnc1-c1nc2cc(C(F)(F)C(F)(F)F)nnc2n1C` [Compound 1-1, methyl 5-ethylsulfonyl-N-(2-methylthioethoxy)-6-(6-pentafluoroethyl-3-methyl-3H-imidazo[4,5-c]pyridazin-2-yl)nicotinimidate], for which the mortality at 100 ppm with Rhipicephalus sanguineus is no less than 50%. Moreover, the inhibition at 50 ppm in the assay with Dirofilaria immitis and in the assay with Haemonchus contortus was no less than 50% each time. For the same compound, the mortality at 50 ppm with Ctenocephalides felis was no less than 50%.
Take `CCS(=O)(=O)c1cc(/C(=N/OCCS(C)(=O)=O)OC)cnc1-c1nc2cc(C(F)(F)C(F)(F)F)nnc2n1C` [Compound 1-3, Methyl 5-ethylsulfonyl-N-(2-methylsulfonylethoxy)-6-(6-pentafluoroethyl-3-methyl-3H-imidazo[4,5-c]pyridazin-2-yl)nicotinimidate]: the inhibition at 50 ppm with Dirofilaria immitis and in the assay on Haemonchus contortus was no less than 50% in each case. Moreover, in the assay with Ctenocephalides felis, the mortality at 50 ppm is no less than 50%.
For the compound `CCS(=O)(=O)c1cc(/C(Br)=N/OCCSC)cnc1-c1nc2cc(C(F)(F)C(F)(F)F)nnc2n1C` [Compound 1-16], the inhibition at 50 ppm in the assay with Dirofilaria immitis is no less than 50%.
For the compound `CCS(=O)(=O)c1cc(/C(=N/OCCSC)SC)cnc1-c1nc2cc(C(F)(F)C(F)(F)F)nnc2n1C` [Compound 1-19, Methyl 5-ethylsulfonyl-N-(2-methylthioethoxy)-6-(6-pentafluoroethyl-3-methyl-3H-imidazo[4,5-c]pyridazin-2-yl)nicotinyl thioimidate], in the assay with Rhipicephalus sanguineus, the mortality at 100 ppm is no less than 50%. The inhibition at 50 ppm in the assay on Dirofilaria immitis and with Haemonchus contortus was no less than 50% each time.
In the case of `CCS(=O)(=O)c1cc(/C(=N/OCCSC)n2cncn2)cnc1-c1nc2cc(C(F)(F)C(F)(F)F)nnc2n1C` [Compound 1-22], the inhibition at 50 ppm with Dirofilaria immitis and in the assay on Haemonchus contortus was no less than 50% throughout. The mortality at 50 ppm in the assay on Ctenocephalides felis is no less than 50%.
